From PubChem BioAssay (NCI)
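How tested: cells in 96-well plates exposed to compound for 48 hours at five concentrations. TGI is the concentration that stops growth completely.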

Columns and labels:
Experiment in all cases: NCI anticancer screen, dose series, 48 h
[1] = test system: 786-0 renal
[2] = test system: A498 renal
[3] = test system: A549 NSCLC
[4] = test system: ACHN renal
[5] = test system: BT-549 breast
[6] = test system: CAKI-1 renal
[7] = test system: CCRF-CEM leukemia
[8] = test system: COLO 205 colon
[9] = test system: DU-145 prostate
[10] = test system: EKVX NSCLC
[11] = test system: HCC-2998 colon
[12] = test system: HCT-116 colon
[13] = test system: HCT-15 colon
[14] = test system: HL-60(TB) leukemia
[15] = test system: HOP-62 NSCLC
[16] = test system: HS 578T breast
[17] = test system: HT29 colon
[18] = test system: IGROV1 ovarian
[19] = test system: K-562 leukemia
[20] = test system: KM12 colon
[21] = test system: LOX IMVI melanoma
[22] = test system: M14 melanoma
[23] = test system: MALME-3M melanoma
[24] = test system: MCF7 breast
[25] = test system: MDA-MB-231 breast
[26] = test system: MDA-MB-435
[27] = test system: MDA-N
[28] = test system: MOLT-4 leukemia
[29] = test system: NCI-H226 lung
[30] = test system: NCI-H23 lung
[31] = test system: NCI-H522 lung
[32] = test system: NCI/ADR-RES ovarian
[33] = test system: OVCAR-3 ovarian
[34] = test system: OVCAR-4 ovarian
[35] = test system: OVCAR-5 ovarian
[36] = test system: OVCAR-8 ovarian
[37] = test system: PC-3 prostate
[38] = test system: RPMI-8226 leukemia
[39] = test system: RXF 393 renal
[40] = test system: SF-268 CNS
[41] = test system: SF-295 CNS
[42] = test system: SF-539 CNS
[43] = test system: SK-MEL-2 melanoma
[44] = test system: SK-MEL-5 melanoma
[45] = test system: SK-OV-3 ovarian
[46] = test system: SN12C renal
[47] = test system: SNB-19 CNS
[48] = test system: SNB-75 CNS
[49] = test system: SR leukemia
[50] = test system: SW-620 colon
[51] = test system: T-47D breast
[52] = test system: TK-10 renal
[53] = test system: U251 CNS
[54] = test system: UACC-257 melanoma
[55] = test system: UACC-62 melanoma
[56] = test system: UO-31 renal
[57] = test system: HOP-92 NSCLC
[58] = test system: NCI-H460 lung
[59] = test system: SK-MEL-28 melanoma

CC(C#N)N(CCc1ccccc1)C(=O)c1ccccc1 (centres undefined)
TGI [1]: > 100 µM
TGI [2]: > 100 µM
TGI [3]: > 100 µM
TGI [4]: > 100 µM
TGI [5]: > 100 µM
TGI [6]: > 100 µM
TGI [7]: > 100 µM
TGI [8]: > 100 µM
TGI [9]: > 100 µM
TGI [10]: > 100 µM
TGI [11]: > 100 µM
TGI [12]: > 100 µM
TGI [13]: > 100 µM
TGI [14]: > 100 µM
TGI [15]: > 100 µM
TGI [16]: > 100 µM
TGI [17]: > 100 µM
TGI [18]: > 100 µM
TGI [19]: > 100 µM
TGI [20]: > 100 µM
TGI [21]: > 100 µM
TGI [22]: > 100 µM
TGI [23]: > 100 µM
TGI [24]: > 100 µM
TGI [25]: > 100 µM
TGI [26]: > 100 µM
TGI [27]: > 100 µM
TGI [28]: > 100 µM
TGI [29]: > 100 µM
TGI [30]: > 100 µM
TGI [31]: > 100 µM
TGI [32]: > 100 µM
TGI [33]: > 100 µM
TGI [34]: > 100 µM
TGI [35]: > 100 µM
TGI [36]: > 100 µM
TGI [37]: > 100 µM
TGI [38]: > 100 µM
TGI [39]: > 100 µM
TGI [40]: > 100 µM
TGI [41]: > 100 µM
TGI [42]: > 100 µM
TGI [43]: > 100 µM
TGI [44]: > 100 µM
TGI [45]: > 100 µM
TGI [46]: > 100 µM
TGI [47]: > 100 µM
TGI [48]: > 100 µM
TGI [49]: > 100 µM
TGI [50]: > 100 µM
TGI [51]: > 100 µM
TGI [52]: > 100 µM
TGI [53]: > 100 µM
TGI [54]: > 100 µM
TGI [55]: > 100 µM
TGI [56]: > 100 µM

Clc1nc2c(C#Cc3ccccc3)ncnc2n1C1CCCCO1 (centres undefined)
TGI [1]: 25.3 µM
TGI [3]: 37.3 µM
TGI [4]: 30.9 µM
TGI [5]: 49.7 µM
TGI [6]: 28.1 µM
TGI [7]: > 100 µM
TGI [8]: 32.7 µM
TGI [9]: 63.2 µM
TGI [10]: 12.4 µM
TGI [11]: 28.7 µM
TGI [12]: 21.7 µM
TGI [13]: 31 µM
TGI [14]: 33.7 µM
TGI [15]: > 100 µM
TGI [57]: 34 µM
TGI [16]: 99.5 µM
TGI [17]: 27.6 µM
TGI [18]: 29.2 µM
TGI [19]: > 100 µM
TGI [20]: 35.1 µM
TGI [21]: 30.7 µM
TGI [22]: 25.9 µM
TGI [23]: 41.7 µM
TGI [24]: 20.9 µM
TGI [25]: 48.4 µM
TGI [26]: 94.1 µM
TGI [27]: 25.2 µM
TGI [28]: 51.2 µM
TGI [29]: > 100 µM
TGI [30]: 33.5 µM
TGI [58]: 39.6 µM
TGI [31]: 25.1 µM
TGI [32]: > 100 µM
TGI [33]: 30.4 µM
TGI [34]: 35.9 µM
TGI [35]: 25.9 µM
TGI [36]: > 100 µM
TGI [37]: 43.2 µM
TGI [38]: 35.8 µM
TGI [39]: 26.9 µM
TGI [40]: 37.2 µM
TGI [41]: 54.4 µM
TGI [42]: 42.2 µM
TGI [43]: 31.5 µM
TGI [59]: 91.3 µM
TGI [44]: 24.8 µM
TGI [45]: > 100 µM
TGI [46]: 23 µM
TGI [47]: 37.3 µM
TGI [48]: > 100 µM
TGI [49]: 24.1 µM
TGI [50]: 55.3 µM
TGI [51]: > 100 µM
TGI [52]: 53 µM
TGI [53]: 26.2 µM
TGI [54]: 41.1 µM
TGI [55]: 27 µM
TGI [56]: 25.1 µM
